Holding throughout (format): binding
The target in one test is T1, ABCR (Homo sapiens, UniProt P78363).
T1 construct: Membranes from transfected cells expressing either full-length ABCR (lanes 1 & 2) or co-expressing the N and C halves; expressed in transfected cells; host or cells: transfected cells (COS-1 or EBNA293)
As to the kind of experiment: 8-azido-ATP/ADP nucleotide trapping in membranes from transfected cells. Conditions: 800 μM orthovanadate, 5 μM 8-azido-[α-32P]ATP, 37° C. On the procedure: FIG. 7. Nucleotide trapping by ABCR and co-expressed N and C halves. A. Effect of orthovanadate on nucleotide trapping. Membranes from transfected cells were incubated with 5 μM 8-azido-[α-^32P]ATP at 37° C., washed, and tightly bound nucleotides were UV crosslinked. Lane 1, full-length ABCR; lane 2, full-length ABCR incubated with 800 μM orthovanadate; lane 3, co-expressed N and C halves; lane 4, co-expressed N- and C-halves incubated with 800 μM orthovanadate. B. Effect of temperature and retinal on nucleotide trapping. Lane 1, full-length ABCR labeled at 0° C.; lane 2, full-length ABCR labeled at 37° C.; lane 3, full-length ABCR labeled at 37° C. in the presence of 50 μM all-trans retinal; lane 4, co-expressed N and C halves labeled at 0° C.; lane 5, co-expressed N and C halves labeled at 37° C.; lane 6, co-expressed N and C halves labeled at 37° C. in the presence of 50 μM all-trans retinal.
8-Azido-ATP Trapping—Membranes were incubated with 5 μM 8-azido-[α-^32P]ATP in 50 μl of labeling buffer with or without 800 μM sodium orthovanadate for 10 min at 37° C. All-trans retinal and 50 μM DTT were added where indicated. Binding was stopped by the addition of ice-cold 20 mM Tris-HCl, pH 7.4, the membranes were collected by centrifugation and washed one more time. Samples exposed to orthovanadate were washed in the presence of 800 μM orthovanadate. […]

Test [1] has as its target T2, co-expressed N and C halves of ABCR (Homo sapiens, UniProt P78363).
T2 construct: The cDNAs coding for the N-half (amino acids 1-1325) and C-half (amino acids 1326-2273) of ABCR; made in house; host or cells: COS-1 cells, co-transfected
T2 sequence (P78363 1-1325): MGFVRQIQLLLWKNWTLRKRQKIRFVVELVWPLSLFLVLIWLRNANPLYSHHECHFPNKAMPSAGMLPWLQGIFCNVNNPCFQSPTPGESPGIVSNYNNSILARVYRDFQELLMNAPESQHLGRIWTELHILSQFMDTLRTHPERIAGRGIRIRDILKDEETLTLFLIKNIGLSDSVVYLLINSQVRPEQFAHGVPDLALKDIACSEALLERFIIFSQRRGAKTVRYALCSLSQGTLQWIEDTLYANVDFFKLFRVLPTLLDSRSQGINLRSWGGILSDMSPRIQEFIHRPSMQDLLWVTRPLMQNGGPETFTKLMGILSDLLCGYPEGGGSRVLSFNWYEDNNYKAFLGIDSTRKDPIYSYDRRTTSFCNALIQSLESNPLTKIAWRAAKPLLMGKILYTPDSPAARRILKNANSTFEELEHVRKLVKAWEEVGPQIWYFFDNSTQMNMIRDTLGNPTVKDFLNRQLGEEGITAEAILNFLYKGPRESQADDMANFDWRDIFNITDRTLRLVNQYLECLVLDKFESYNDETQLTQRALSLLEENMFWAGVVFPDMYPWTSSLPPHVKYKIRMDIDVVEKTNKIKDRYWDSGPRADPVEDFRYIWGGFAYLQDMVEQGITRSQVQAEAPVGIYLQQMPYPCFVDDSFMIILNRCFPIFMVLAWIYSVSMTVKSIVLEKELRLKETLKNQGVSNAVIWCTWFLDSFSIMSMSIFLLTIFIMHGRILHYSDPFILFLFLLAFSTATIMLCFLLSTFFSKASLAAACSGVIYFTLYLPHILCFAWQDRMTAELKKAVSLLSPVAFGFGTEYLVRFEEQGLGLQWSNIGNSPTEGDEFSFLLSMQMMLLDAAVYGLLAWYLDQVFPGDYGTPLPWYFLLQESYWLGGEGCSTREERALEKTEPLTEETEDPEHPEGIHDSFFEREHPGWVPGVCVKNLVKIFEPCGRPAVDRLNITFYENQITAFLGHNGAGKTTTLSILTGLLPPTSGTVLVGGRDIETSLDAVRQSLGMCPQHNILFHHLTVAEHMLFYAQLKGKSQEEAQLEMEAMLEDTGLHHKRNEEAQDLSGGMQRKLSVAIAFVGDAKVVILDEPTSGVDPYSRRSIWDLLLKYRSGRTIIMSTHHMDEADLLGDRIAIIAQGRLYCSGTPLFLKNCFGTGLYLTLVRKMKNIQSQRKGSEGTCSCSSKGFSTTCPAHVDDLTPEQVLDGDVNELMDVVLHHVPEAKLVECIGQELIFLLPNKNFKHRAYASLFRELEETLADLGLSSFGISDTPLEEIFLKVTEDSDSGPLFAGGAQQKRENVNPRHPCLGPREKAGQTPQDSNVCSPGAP
T2 sequence (P78363 1326-2273): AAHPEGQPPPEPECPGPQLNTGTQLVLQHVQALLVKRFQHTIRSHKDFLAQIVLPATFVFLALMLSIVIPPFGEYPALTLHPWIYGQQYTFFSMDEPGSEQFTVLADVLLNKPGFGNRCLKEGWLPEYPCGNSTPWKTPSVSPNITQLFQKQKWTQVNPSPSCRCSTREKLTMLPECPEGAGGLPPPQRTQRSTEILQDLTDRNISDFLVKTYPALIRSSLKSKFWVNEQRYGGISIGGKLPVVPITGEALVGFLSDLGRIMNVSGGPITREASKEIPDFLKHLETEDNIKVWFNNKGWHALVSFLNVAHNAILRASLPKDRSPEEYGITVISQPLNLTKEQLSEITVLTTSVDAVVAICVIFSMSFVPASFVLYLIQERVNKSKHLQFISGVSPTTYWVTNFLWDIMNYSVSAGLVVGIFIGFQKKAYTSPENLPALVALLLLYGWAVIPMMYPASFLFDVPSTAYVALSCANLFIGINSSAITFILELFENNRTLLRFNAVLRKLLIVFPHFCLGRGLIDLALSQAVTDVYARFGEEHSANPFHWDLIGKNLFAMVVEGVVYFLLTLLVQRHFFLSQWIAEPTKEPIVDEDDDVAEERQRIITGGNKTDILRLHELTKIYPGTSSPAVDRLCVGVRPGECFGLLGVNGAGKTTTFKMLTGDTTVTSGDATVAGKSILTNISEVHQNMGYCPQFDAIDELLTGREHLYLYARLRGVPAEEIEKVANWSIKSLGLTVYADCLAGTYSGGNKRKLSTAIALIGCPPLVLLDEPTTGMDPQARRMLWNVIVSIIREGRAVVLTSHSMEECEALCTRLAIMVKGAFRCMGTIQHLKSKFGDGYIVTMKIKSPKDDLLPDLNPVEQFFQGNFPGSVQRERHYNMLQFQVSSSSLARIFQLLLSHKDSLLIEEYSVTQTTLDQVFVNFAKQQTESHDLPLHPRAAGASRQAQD
The experiment in a line: 8-azido-ATP photoaffinity labeling of membranes from transfected cells. Conditions: 1 mM ATP added prior to photoaffinity labeling; 1.5 μM 8-azido-[α-32P]ATP; C-half labeled; FIG. 5A lane 4. On the procedure:
(§1) FIG. 5. Azido-ATP photoaffinity labeling of the N and C halves of ABCR. A. Membranes from transfected cells expressing either full-length ABCR (lanes 1 & 2) or co-expressing the N and C halves (lanes 3 & 4) were photoaffinity labeled with 1.5 μM 8-azido-[α-^32P]ATP in the absence or presence of 1 mM ATP. The expressed protein was isolated on a Rim3F4-Sepharose matrix prior to analysis by SDS-PAGE and phosphorimage analysis. Left panel: Coomassie blue stained gel. Right panel: Azido-ATP labeling. B. Membranes from transfected cells expressing full-length ABCR, the N-half, the C-half, or both halves (NC halves) were labeled with 8-azido-[α-^32P] and isolated as above. Similar amounts of protein were loaded in each lane of the gel as judged by staining with Coomassie brilliant blue (not shown). C. Rod outer segment membranes were incubated with (+) or without (−) trypsin and subsequently labeled with azido-[α-^32P]ATP. ABCR and the associated N and C complex were purified on a Rim3F4-Sepharose matrix. Left panel: Azido-ATP labeling of the full-length ABCR (220 kDa) and the C-half (114 kDa); N-half was not labeled. Right panel: Western blots labeled for the full-length ABCR and C-half with the Rim3F4 antibody and the N-half with the Rim5B4 antibody. […]

In a further test the target is full-length ABCR (Homo sapiens, UniProt P78363). Described as above. Conditions: 1 mM ATP added prior to photoaffinity labeling; 1.5 μM 8-azido-[α-32P]ATP; FIG. 5A lane 2. Set-up: Membranes from transfected cells expressing either full-length ABCR (lanes 1 & 2); expressed in transfected cells; host or cells: transfected cells (COS-1 or EBNA293). On the procedure:
as §1

T1 sequence (P78363 whole entry): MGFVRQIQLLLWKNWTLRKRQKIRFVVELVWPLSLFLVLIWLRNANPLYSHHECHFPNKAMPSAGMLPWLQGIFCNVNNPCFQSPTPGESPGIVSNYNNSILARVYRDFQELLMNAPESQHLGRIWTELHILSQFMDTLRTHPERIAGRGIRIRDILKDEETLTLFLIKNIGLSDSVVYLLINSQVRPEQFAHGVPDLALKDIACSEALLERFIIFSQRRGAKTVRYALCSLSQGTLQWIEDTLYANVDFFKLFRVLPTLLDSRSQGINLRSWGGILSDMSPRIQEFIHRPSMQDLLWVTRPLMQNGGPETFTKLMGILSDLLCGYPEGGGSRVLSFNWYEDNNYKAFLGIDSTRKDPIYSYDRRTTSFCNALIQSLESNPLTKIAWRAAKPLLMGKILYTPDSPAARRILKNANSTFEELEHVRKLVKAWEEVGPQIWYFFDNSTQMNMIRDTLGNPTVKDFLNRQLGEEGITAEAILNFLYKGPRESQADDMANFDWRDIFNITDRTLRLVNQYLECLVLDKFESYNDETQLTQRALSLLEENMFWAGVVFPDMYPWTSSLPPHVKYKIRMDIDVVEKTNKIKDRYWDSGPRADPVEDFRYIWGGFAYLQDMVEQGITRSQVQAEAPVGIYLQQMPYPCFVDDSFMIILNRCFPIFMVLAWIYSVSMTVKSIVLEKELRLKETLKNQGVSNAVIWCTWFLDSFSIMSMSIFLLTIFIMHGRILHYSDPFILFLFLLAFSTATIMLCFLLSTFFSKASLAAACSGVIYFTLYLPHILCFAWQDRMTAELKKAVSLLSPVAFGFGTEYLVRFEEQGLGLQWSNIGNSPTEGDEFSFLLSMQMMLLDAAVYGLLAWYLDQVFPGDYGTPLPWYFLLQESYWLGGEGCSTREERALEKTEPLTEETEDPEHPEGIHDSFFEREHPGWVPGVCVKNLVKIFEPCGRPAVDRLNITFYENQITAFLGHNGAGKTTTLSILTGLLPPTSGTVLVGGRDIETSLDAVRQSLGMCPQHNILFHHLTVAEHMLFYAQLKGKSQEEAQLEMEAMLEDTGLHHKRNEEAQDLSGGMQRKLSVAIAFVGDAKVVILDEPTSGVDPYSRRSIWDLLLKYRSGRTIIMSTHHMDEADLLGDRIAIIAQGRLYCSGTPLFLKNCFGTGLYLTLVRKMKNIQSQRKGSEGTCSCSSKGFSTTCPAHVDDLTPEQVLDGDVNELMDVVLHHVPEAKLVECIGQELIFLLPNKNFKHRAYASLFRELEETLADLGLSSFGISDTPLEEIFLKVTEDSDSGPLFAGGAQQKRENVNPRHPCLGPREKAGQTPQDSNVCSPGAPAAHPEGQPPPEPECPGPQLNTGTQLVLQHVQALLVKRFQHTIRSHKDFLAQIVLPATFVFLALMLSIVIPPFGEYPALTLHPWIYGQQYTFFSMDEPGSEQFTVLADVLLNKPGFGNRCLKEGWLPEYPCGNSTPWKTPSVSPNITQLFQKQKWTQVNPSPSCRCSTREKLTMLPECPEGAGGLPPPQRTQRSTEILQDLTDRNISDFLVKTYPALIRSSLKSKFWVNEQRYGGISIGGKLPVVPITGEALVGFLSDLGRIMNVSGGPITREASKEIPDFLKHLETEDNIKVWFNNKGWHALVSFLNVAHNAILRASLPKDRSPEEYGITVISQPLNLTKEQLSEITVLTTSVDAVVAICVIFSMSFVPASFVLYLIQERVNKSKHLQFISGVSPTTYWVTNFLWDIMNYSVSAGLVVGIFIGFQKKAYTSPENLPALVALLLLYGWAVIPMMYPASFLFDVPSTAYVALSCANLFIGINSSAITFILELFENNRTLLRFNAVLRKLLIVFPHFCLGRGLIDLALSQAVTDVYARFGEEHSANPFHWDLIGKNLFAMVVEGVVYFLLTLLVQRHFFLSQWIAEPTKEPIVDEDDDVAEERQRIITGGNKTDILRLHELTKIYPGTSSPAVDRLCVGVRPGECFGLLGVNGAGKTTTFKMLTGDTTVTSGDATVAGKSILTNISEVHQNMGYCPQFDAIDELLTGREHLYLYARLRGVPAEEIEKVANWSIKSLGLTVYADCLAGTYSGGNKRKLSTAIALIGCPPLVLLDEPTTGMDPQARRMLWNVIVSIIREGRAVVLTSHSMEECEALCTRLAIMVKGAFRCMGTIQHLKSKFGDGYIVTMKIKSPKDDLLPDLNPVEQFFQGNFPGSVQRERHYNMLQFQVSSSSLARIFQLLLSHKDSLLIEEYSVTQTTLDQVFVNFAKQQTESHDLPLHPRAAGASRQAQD
Sequence of full-length ABCR (P78363 whole entry): as above

As for `[Na+].[Na+].[Na+].[O]=[V]([O-])([O-])[O-]` [sodium orthovanadate], the “effect on 8-azido ATP/ADP trapping” value on ABCR is listed as “not dependent”.

Regarding `Nc1ncnc2c1ncn2[C@@H]1O[C@H](COP(=O)(O)OP(=O)(O)OP(=O)(O)O)[C@@H](O)[C@H]1O` [ATP], the “effect on 8-azido-ATP labeling” value (in test [1]; at full-length ABCR) was “essentially abolished” in each case.

Values taken from patent US20060110790A1, “Expression system for large functional proteins” (priority 2002, published 2006).
